# Laboratory results as given in patent US10342776B2, “Compositions and methods for controlling infections” (priority 2004, dated 2019).
# Key:
# [1] = test system: Candida albicans (five clinical isolates); assay: Growth inhibition of five other clinical isolates of Candida albicans in liquid culture (absorbance at 600 nm, CFU/ml); assay type: cell-based; conditions: for average CFU/ml after culturing: 6 hours, start about 10^6 CFU/ml
# Method: Five clinical isolates of Candida albicans (separate from those tested in experiments described in Example 2) were tested for susceptibility to growth inhibition by GML. The data in FIG. 3 are the means of values obtained by separately testing each of the five clinical isolates. The experiments were performed in liquid culture as described in Example 2 except that, instead of measuring the number of organisms in the cultures by plating on agar plates, values of absorbance at 600 nm were determined at the indicated time points. An absorbance value of 6.5 corresponds to about 5×10^8 CFU/ml of Candida albicans. The growth of all of the isolates was inhibited by GML. Culturing for 6 hours 0.1 ml aliquots of the isolates (containing about 10^6 CFU/ml) in 100 μg/ml and 500 μg/ml of GML yielded an average of about 700 CFU/ml and about 400 CFU/ml, respectively.
# [2] = test system: Gardnerella vaginalis (clinical isolate); assay: G. vaginalis liquid culture in dialyzable beef heart medium with GML, colony counting; assay type: cell-based
# Method: (§1) Cells (1.2×10^7/ml in a total volume of 25 ml of dialyzable beef heart medium) of a recent clinical isolate of the gram negative rod Gardnerella vaginalis in vitro were cultured for various lengths of time with various concentrations of GML. At the various time points, the concentration of bacteria in the cultures were determined by colony counting on chocolate agar plates. GML at concentrations as low as 5 μg/ml were bactericidal to G. vaginalis. […] This finding points to the likely efficacy of GML in vivo. Moreover, GML (5 μg/ml or greater) inhibited growth of G. vaginalis plated (0.1 ml at 1.2×10^7/ml) onto chocolate agar plates (Table 3; data obtained after 24 hours of culturing).
# [3] = test system: Gardnerella vaginalis (clinical isolate); assay: G. vaginalis liquid culture with GML in the presence of 10% fetal calf serum; assay type: cell-based; conditions: for Cells/ml (×10^7) at 24 hours: 10% fetal calf serum
# Method: as §1
# Haemophilus influenzae = assay: Kinetic study of Haemophilus influenzae growth in Todd Hewitt medium with GML, CFU/ml; assay type: cell-based; conditions: GML 50 μg/ml or 100 μg/ml; liquid culture up to 24 hours
# Method: The strain was inoculated (at a concentration of 1.2×10^6 CFU/ml) into 50 ml of Todd Hewitt medium containing various concentrations of GML. The cultures were grown for 24 hours in an atmosphere of 7% carbon dioxide (balance air) with shaking at 100 RPM. At designated times samples were removed, and colony forming units (CFU) per milliliter were determined by plate counts on chocolate agar plates.
# [4] = test system: Lactobacillus (L. crispatis); assay: In vitro growth of L. crispatis bacteria with GML; assay type: cell-based
# Text: (§2) Thus, it was surprising to discover that a number of other bacterial genera (see below) were highly sensitive to the direct toxic effects of GML.
# Salmonella = assay: Direct toxicity of GML to Salmonella; assay type: cell-based
# Text: as §2
# Staphylococcus aureus = conditions: earlier work, U.S. application Ser. No. 10/986,512; cited from earlier work
# Neisseria gonorrheae = conditions: earlier work, U.S. application Ser. No. 10/986,512; cited from earlier work
# [5] = GML concentrations up to 100 μg/ml
structure (smiles),measurement,setting,value
"CCCCCCCCCCCC(=O)OCC(O)CO (stereo not drawn) [GML, glycerol monolaurate]",average CFU/ml after culturing,[1]; 100 μg/ml GML,about 700 CFU/ml
same,average CFU/ml after culturing,[1]; 500 μg/ml GML,about 400 CFU/ml
same,growth of the isolates,"[1]; five clinical isolates, liquid culture, absorbance at 600 nm",inhibited
same,Cells/ml (×10^7) at 6 hours,[2]; GML 1 μg/ml,13 Cells/ml (×10^7)
same,Cells/ml (×10^7) at 24 hours,[2]; GML 1 μg/ml,208 Cells/ml (×10^7)
same,Cells/ml (×10^7) at 6 hours,[2]; GML 5 μg/ml,0.0002 Cells/ml (×10^7)
same,Cells/ml (×10^7) at 24 hours,[2]; GML 5 μg/ml,0.0004 Cells/ml (×10^7)
same,Cells/ml (×10^7) at 6 hours,[2]; GML 10 μg/ml,<0.000001 Cells/ml (×10^7)
same,Cells/ml (×10^7) at 24 hours,[2]; GML 10 μg/ml,<0.000001 Cells/ml (×10^7)
same,Cells/ml (×10^7) at 6 hours,[2]; GML 20 μg/ml,<0.000001 Cells/ml (×10^7)
same,Cells/ml (×10^7) at 24 hours,[2]; GML 20 μg/ml,<0.000001 Cells/ml (×10^7)
same,Cells/ml (×10^7) at 6 hours,[2]; GML 50 μg/ml,<0.000001 Cells/ml (×10^7)
same,Cells/ml (×10^7) at 24 hours,[2]; GML 50 μg/ml,<0.000001 Cells/ml (×10^7)
same,Cells/ml (×10^7) at 6 hours,[2]; GML 100 μg/ml,<0.000001 Cells/ml (×10^7)
same,Cells/ml (×10^7) at 24 hours,[2]; GML 100 μg/ml,<0.000001 Cells/ml (×10^7)
same,Cells/ml (×10^7) at 6 hours,[2]; GML 1000 μg/ml,<0.000001 Cells/ml (×10^7)
same,Cells/ml (×10^7) at 24 hours,[2]; GML 1000 μg/ml,<0.000001 Cells/ml (×10^7)
same,GML concentration bactericidal to G. vaginalis,[2]; liquid culture,≥ 5 µg/mL
same,Cells/ml (×10^7) at 24 hours,[3]; GML 1 μg/ml,210 Cells/ml (×10^7)
same,Cells/ml (×10^7) at 24 hours,[3]; GML 5 μg/ml,201 Cells/ml (×10^7)
same,Cells/ml (×10^7) at 24 hours,[3]; GML 10 μg/ml,160 Cells/ml (×10^7)
same,Cells/ml (×10^7) at 24 hours,[3]; GML 20 μg/ml,88 Cells/ml (×10^7)
same,Cells/ml (×10^7) at 24 hours,[3]; GML 50 μg/ml,1.8 Cells/ml (×10^7)
same,Cells/ml (×10^7) at 24 hours,[3]; GML 100 μg/ml,<0.03 Cells/ml (×10^7)
same,inhibition of growth of G. vaginalis,[3]; medium supplemented with fetal calf serum,effective in inhibiting the growth
same,growth of H. influenza organisms,Haemophilus influenzae,inhibited the growth
same,resistance to direct toxicity by GML,[4],relatively resistant
same,effect on in vitro growth,[4]; GML concentrations up to 50 μg/ml,had no effect
same,effect on in vitro growth,[4]; [5],delayed (but did not stop) its growth
same,effect on stationary phase survival,[4]; [5],extended their stationary phase survival
same,resistance to direct toxicity by GML,Salmonella,relatively resistant
same,resistance to direct toxic effects of GML,Staphylococcus aureus,relatively resistant
same,resistance to direct toxic effects of GML,Neisseria gonorrheae,relatively resistant
